Assay results as given in patent US8372878B2, “Aminoguanidines as melanocortin receptor ligands” (Anamar AB, priority 2006, dated 2013).

Experiments:
[1] = biological target: T1, MC3 (Homo sapiens, UniProt P41968); assay: Stimulation of cAMP, MC3; format: cell-based
Protocol: (§1) Test 3. cAMP The stimulation of cAMP was carried out essentially as described by Schiöth et al, Br J Pharmacol 1998; 124; 75-82.

[2] = biological target: T2, MC4 (Homo sapiens, UniProt P32245); assay: Affinity for the MC4-receptors, binding assay with I125-NDP-αMSH as ligand; details: read-out: Affinity for MC-receptors Ki MC4
Protocol: (§2) Test 2. Affinity for the MC3-Receptors, the MC4-Receptors and the MC5-Receptors
(§3) The binding assays were carried out essentially as described by Szardenings et al, J Biol Chem 1997; 272; 27943-27948 and Schiöth et al, FEBS Lett 1997; 410; 223-228 using I^125-NDP-αMSH as ligand.

[3] = biological target: T2, MC4; assay: Stimulation of cAMP, MC4; format: cell-based
Protocol: as §1

[4] = biological target: MC1-Receptor (Mus musculus, UniProt Q01727); assay: Affinity for the MC1-receptor, binding assay with I125-NDP-αMSH as ligand; details: read-out: Affinity for MC-receptors Ki MC1
Protocol: Test 1. Affinity for the MC1-Receptor
The binding assay was carried out essentially as described by Lunec et al, Melanoma Res 1992; 2; 5-12, using I^125-NDP-αMSH as ligand.

[5] = biological target: T3, MC5 (Homo sapiens, UniProt P33032); assay: Affinity for the MC5-receptors, binding assay with I125-NDP-αMSH as ligand; details: read-out: Affinity for MC-receptors Ki MC5
Protocol: as §2, §3

[6] = biological target: T3, MC5; assay: Stimulation of cAMP, MC5; format: cell-based
Protocol: as §1

[7] = biological target: T1, MC3; assay: Affinity for the MC3-receptors, binding assay with I125-NDP-αMSH as ligand; details: read-out: Affinity for MC-receptors Ki MC3
Protocol: as §2, §3

[8] = biological target: MC1 (Homo sapiens, UniProt Q01726); assay: Stimulation of cAMP, MC1; format: cell-based
Protocol: as §1

T1 sequence (P41968 whole entry): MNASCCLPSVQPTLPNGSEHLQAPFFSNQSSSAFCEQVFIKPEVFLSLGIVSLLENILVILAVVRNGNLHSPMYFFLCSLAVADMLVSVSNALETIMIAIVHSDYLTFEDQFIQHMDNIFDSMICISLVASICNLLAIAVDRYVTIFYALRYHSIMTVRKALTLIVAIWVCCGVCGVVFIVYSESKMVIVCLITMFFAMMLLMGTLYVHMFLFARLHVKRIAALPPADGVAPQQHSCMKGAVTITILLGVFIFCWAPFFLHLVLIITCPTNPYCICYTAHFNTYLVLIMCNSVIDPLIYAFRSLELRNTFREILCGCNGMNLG
T2 sequence (P32245 whole entry): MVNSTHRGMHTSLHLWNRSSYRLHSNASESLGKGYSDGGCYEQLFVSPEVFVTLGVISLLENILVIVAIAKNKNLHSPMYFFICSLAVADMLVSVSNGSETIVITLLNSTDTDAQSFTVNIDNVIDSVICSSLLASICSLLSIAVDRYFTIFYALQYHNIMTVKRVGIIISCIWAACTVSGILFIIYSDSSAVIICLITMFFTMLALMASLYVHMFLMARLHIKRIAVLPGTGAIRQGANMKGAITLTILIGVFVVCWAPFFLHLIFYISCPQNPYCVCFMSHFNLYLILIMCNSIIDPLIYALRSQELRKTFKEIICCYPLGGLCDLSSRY
T3 sequence (P33032 whole entry): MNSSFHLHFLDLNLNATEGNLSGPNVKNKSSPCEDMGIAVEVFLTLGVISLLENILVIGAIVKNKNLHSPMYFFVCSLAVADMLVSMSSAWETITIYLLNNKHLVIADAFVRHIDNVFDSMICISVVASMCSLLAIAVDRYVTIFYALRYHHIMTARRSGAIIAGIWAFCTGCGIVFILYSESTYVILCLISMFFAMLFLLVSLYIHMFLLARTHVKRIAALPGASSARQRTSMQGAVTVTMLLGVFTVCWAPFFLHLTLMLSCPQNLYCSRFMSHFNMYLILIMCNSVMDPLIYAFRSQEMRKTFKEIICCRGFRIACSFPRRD
Sequence of MC1-Receptor (Q01727 whole entry): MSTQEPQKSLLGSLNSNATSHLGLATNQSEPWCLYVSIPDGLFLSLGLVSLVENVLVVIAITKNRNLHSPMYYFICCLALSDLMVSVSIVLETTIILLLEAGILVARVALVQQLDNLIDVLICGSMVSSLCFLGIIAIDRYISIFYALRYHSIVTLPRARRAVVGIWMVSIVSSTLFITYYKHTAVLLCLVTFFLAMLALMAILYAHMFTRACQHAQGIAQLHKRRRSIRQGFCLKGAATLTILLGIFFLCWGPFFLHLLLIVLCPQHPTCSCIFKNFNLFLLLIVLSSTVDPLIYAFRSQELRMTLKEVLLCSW
Sequence of MC1 (Q01726 whole entry): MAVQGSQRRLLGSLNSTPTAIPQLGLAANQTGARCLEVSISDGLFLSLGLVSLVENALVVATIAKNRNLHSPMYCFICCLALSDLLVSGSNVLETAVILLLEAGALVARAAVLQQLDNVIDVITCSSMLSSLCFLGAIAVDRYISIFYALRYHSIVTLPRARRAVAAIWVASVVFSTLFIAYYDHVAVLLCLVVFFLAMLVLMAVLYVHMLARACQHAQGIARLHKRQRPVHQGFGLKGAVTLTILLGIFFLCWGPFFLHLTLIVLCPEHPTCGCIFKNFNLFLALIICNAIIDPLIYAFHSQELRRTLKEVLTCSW

Row | Ki [2] [µM] | Ki [5] [µM] | Ki [7] [µM] | Structure (SMILES) | Influence on cAMP MC3c [1] | Influence on cAMP MC4c [3] | Ki [4] [µM] | Influence on cAMP MC5c [6] | Influence on cAMP MC1c [8]
1 | 0.6 | 19.7 | 19.7 | CSc1c(Cl)cccc1C=NNC(=N)N.Cl [Compound 1:1, N-(2-Methylthio-3-chlorobenzylideneamino)guanidine hydrochloride] | 2 | 13 | 0.7 | 1 | 1
2 | – | – | – | CCOC(=O)c1cccc(C=NNC(=N)N)c1Cl.O=C(O)C(F)(F)F [1:3, N-(2-Chloro-(3-ethoxycarbonyl)-benzylideneamino)guanidine trifluoroacetate] | 0 | 7 | 3.4 | 0 | 0
